# Results published in patent US12404261B2, “Compounds and compositions for treating conditions associated with cGAS” (Novartis AG, priority 2020, dated 2025).
# Target: human truncated cGAS enzyme (147-522 human cGAS) (Homo sapiens (Human), UniProt Q8N884)
# Assay: Quantification of cGAS protein inhibition (cGAMP formation measured by LC-MS/MS)
# Type: biochemical
# Details: reported for the potential mixture in solution of co-existing tautomers and/or racemates
# Experimental: A reagent buffer was prepared in filtered and autoclaved water according to the following: • 50 mM Tris-buffer pH 7.5 (1 M Tris-buffer pH 7.5, Invitrogen, Cat. No. 15567-027); • 50 mM NaCl (5 M NaCl, Sodium Chloride Solution, Sigma, 59222C-); • 5 mM MgCl2 (1 M MgCl2, Sigma, M1028); • 0.1 mM ZnCl2 (Zinc Chloride [7646-85-7], powder, Cell Culture Tested, Sigma, Z-0152); and • 0.001% Tween 20 (TWEEN 20, Sigma Aldrich, P1379-).
# A buffer for the cGAS enzyme was prepared in filtered and autoclaved water according to the following: • 50 mM Tris-buffer pH 7.5; • 5 mM MgCl2; and • 0.001% Tween 20.
# Compounds were dispensed to a […]. The human truncated cGAS enzyme (4.2 mg/mL 147-522 human cGAS, MW 43,909 g/mol) was stored in 50 mM Tris, 500 mM NaCl, 5% (v/v) glycerol at pH 8 and diluted in the cGAS buffer enzyme shortly before use. The enzyme solution was transferred into the reagent buffer to give a final concentration of 30 nM. The reaction was started by mixing the enzyme with ISD (a 45 bp double stranded DNA, MW 27,670 g/mol, 5 mM), GTP and ATP to a final concentration of 5 μM, 0.5 mM and 0.5 mM respectively in a final volume of 10 μl. The reaction plates were then centrifuged at 1000 rpm for 1 minute and incubated at room temperature for 1 h. After 1 h of incubation, [^5Ns]-2′3′-cGAMP to a final concentration of 200 nM and 30 μL of 100% acetonitrile/0.175% of TFA were added to the reaction mixture. The plates were centrifuged at 1000 rpm for 1 minute before being sealed for 3 seconds at 170° C. using a ThermoScientific sealer (ALPS™ 50V) and an aluminum sealing cover (Pierce Seal, 4titude, Product Code: 4TI-0531).
# The concentration of cGAMP was measured on a LC-MS/MS system consisting of a THERMO Dionex Ultimate LC system with a high pressure pump, an autosampler, a column heating compartment (Reinach, Switzerland) and a SCIEX Triple Quad 5500 (Framingham, MA, USA) mass spectrometer for detection. The sample plates were centrifuged for 10 minutes at 2000 rpm. Up to three plates were placed in the autosampler for injection. An aliquot of 10 μL of each sample was injected on an XBridge BEH Amide 3.5 μm, 2.1×50 mm column (P/N 186004859) with an XBridge BEH Amide 5 μm 2.1×5 mm VanGuard Cartridge (P/N 186007760) pre-column (both WATERS, MA, USA) held at 40° C. An isocratic flow of 1.0 mL/min solvent (60% ACN, 8 mM ammonium acetate, 5 mM ammonium hydroxide, 0.04% acetic acid) was applied and sprayed into the ion source of the mass spectrometers. The MS parameters were optimized based on the properties of the compounds to be detected and run in positive multi-reaction mode (MRM) based on the mass transitions. LC and MS parameters were also optimized to allow for a sample-to-sample measuring time of approximately 75 sec and a run time of 8 hours per 384-well plate. All data were analyzed with Excel; and the dose response curves were generated using the auto fitting function of XLfit. The IC50 was determined by plotting the cGAMP concentration ratio (cGAMP divided by the internal standard [^15Ns]-2′3′-cGAMP) versus the concentration of compound.
# Sequence of human truncated cGAS enzyme (147-522 human cGAS) (Q8N884 147-522): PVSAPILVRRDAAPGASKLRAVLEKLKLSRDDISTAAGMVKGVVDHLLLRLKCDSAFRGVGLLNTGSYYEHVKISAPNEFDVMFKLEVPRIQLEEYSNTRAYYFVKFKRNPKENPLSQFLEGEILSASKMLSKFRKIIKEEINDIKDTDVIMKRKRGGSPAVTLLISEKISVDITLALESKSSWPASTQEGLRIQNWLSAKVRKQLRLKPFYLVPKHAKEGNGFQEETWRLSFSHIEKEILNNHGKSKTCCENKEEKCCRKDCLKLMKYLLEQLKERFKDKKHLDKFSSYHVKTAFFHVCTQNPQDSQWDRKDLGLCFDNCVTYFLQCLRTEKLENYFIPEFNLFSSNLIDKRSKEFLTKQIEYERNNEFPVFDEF
row,IC50 [nM],Compound
1,226,"N#Cc1c(Cl)ccc2c(-n3ccnc3)c(-c3nnc(C(F)(F)F)[nH]3)[nH]c12 [Example 110, 6-chloro-3-(1H-imidazol-1-yl)-2-(5-(trifluoromethyl)-4H-1,2,4-triazol-3-yl)-1H-indole-7-carbonitrile]"
2,411,"COCC(c1nnc(-c2c(-n3ccnc3)c3cc(OC)c(Cl)c(F)c3n2C)[nH]1)N1CCOCC1 (stereo not shown) [Example 126, 4-(1-(5-(6-chloro-7-fluoro-3-(1H-imidazol-1-yl)-5-methoxy-1-methyl-1H-indol-2-yl)-4H-1,2,4-triazol-3-yl)-2-methoxyethyl)morpholine]"
3,140,"COC[C@H](c1nnc(-c2c(-n3ccnc3)c3cc(OC)c(Cl)c(F)c3n2C)[nH]1)N(C)C [Example 124b, (S)-1-(5-(6-chloro-7-fluoro-3-(1H-imidazol-1-yl)-5-methoxy-1-methyl-1H-indol-2-yl)-4H-1,2,4-triazol-3-yl)-2-methoxy-N,N-dimethylethan-1-amine]"

# Same assay, conditions: reported for the potential mixture of co-existing tautomers and/or racemates
row,Compound,IC50 [nM]
1,"COCC(=O)c1nnc(-c2[nH]c3c(Cl)c(Cl)ccc3c2-c2cn[nH]c2)[nH]1 [Example 7, 1-(5-(6,7-dichloro-3-(1H-pyrazol-4-yl)-1H-indol-2-yl)-4H-1,2,4-triazol-3-yl)-2-methoxyethan-1-one]",30
2,"FC(F)(F)Cc1nnc(-c2[nH]c3c(Cl)c(Cl)ccc3c2-c2cn[nH]c2)[nH]1 [Example 13, 6,7-dichloro-3-(1H-pyrazol-4-yl)-2-(5-(2,2,2-trifluoroethyl)-4H-1,2,4-triazol-3-yl)-1H-indole]",178
3,"Oc1cc(-c2c(-c3nnc(C(F)(F)F)[nH]3)[nH]c3c(Cl)c(Cl)ccc23)no1 [Example 77, 3-(6,7-dichloro-2-(5-(trifluoromethyl)-4H-1,2,4-triazol-3-yl)-1H-indol-3-yl)isoxazol-5-ol]",1850
4,"Fc1c(Cl)ccc2c(-c3cn[nH]c3)c(-c3nnc(C(F)(F)F)[nH]3)[nH]c12 [Example 16, 6-chloro-7-fluoro-3-(1H-pyrazol-4-yl)-2-(5-(trifluoromethyl)-4H-1,2,4-triazol-3-yl)-1H-indole]",44
5,"COc1cc2c(-c3cn[nH]c3)c(-c3nnc(C(C)F)[nH]3)[nH]c2c(F)c1Cl (stereo not shown) [Example 71, 6-chloro-7-fluoro-2-(5-(1-fluoroethyl)-4H-1,2,4-triazol-3-yl)-5-methoxy-3-(1H-pyrazol-4-yl)-1H-indole]",44
6,"COCCn1c(-c2nnc(C(F)(F)F)[nH]2)c(-c2cn[nH]c2)c2cc(OC)c(Cl)cc21 [Example 26, 6-chloro-5-methoxy-1-(2-methoxyethyl)-3-(1H-pyrazol-4-yl)-2-(5-(trifluoromethyl)-4H-1,2,4-triazol-3-yl)-1H-indole]",1810

# The next lines start with the values.
row,IC50 [nM],Compound
1,58,"COc1cc2c(-n3ccnc3)c(-c3nnc(C(=O)N4CCC(O)CC4)[nH]3)n(C)c2c(F)c1Cl [Example 44, (5-(6-chloro-7-fluoro-3-(1H-imidazol-1-yl)-5-methoxy-1-methyl-1H-indol-2-yl)-4H-1,2,4-triazol-3-yl)(4-hydroxypiperidin-1-yl)methanone]"
2,56,"COc1cc2c(-n3ccnc3)c(-c3nnc(CS(C)(=O)=O)[nH]3)n(C)c2c(F)c1Cl [Example 56, 6-Chloro-7-fluoro-3-(1H-imidazol-1-yl)-5-methoxy-1-methyl-2-(5-((methylsulfonyl)methyl)-4H-1,2,4-triazol-3-yl)-1H-indole]"
3,206,"COCCc1nnc(-c2c(-n3ccnc3)c3cc(OC)c(Cl)c(F)c3n2C)[nH]1 [Example 52, 6-chloro-7-fluoro-3-(1H-imidazol-1-yl)-5-methoxy-2-(5-(2-methoxyethyl)-4H-1,2,4-triazol-3-yl)-1-methyl-1H-indole]"
4,57,"COc1cc2c(-n3ccnc3)c(-c3nnc(CSC)[nH]3)n(C)c2c(F)c1Cl [Example 50, 6-Chloro-7-fluoro-3-(1H-imidazol-1-yl)-5-methoxy-1-methyl-2-(5-((methylthio)methyl)-4H-1,2,4-triazol-3-yl)-1H-indole]"
